Data: US10561703B2, “Method of modulating sex hormone levels using a sex hormone secretion modulator” (GEMVAX & KAEL CO., LTD., priority 2013, dated 2020)

Test system: LH
Assay: LH level in blood (serum CLIA) after repeated sc PEP-1
Format: in vivo, SD rats
Protocol: PEP-1 (peptide of SEQ ID NO: 1), lyophilized white powder, obtained according to the method mentioned in example 1 was dissolved in 0.9% of saline, considering the correction factor of PEP-1 (purity: 94.13%, content: 92.36%, correction factor: 1.15). 50 mg/mL stock solution was further diluted into 20 mg/mL, 2 mg/mL, and 1 mg/mL with 0.9% saline, and stored at 4° C. for a week until the use.
The purpose of this example is to confirm the change of sexual hormones in blood from SD rats with 7 days repeated daily administration of SEQ ID NO: 1 peptide, PEP-1. This experiment followed the Ethics Regulation of Animal Test by KAMSI Inc. (Korea Animal Medical Science Institute). In addition, this experiment, Non-GLP experiment, referred to the MFDS (Ministry of Food and Drug Safety) notification; Agent 2013-40 (5th April 2013), Principles of Good Laboratory Practice (1997).
SPF Rats (Crlj:CD(SD)) were purchased from ORIENTBio Inc. (Mokdong-ri, Buk-myeon, Gapyeong-gun, Gyeonggi-do, Republic of Korea). 75 male (6.5 weeks old and 190˜210 g) and 75 female (6.5 weeks old and 160˜180 g) rats were monitored for 4 days, and 64 of male and female rats (each) were selected for the experiment. Raising condition is as follows; 23±3° C. of temperature, […] of relative humidity, 10˜20 times/hr of number of air changes, 12 hours (8 a.m.˜8 p.m.) of lighting with 150˜300 Lux of intensity.
64 male and female […] (mentioned above) were divided into 8 groups. Administration regimen, for example, drugs, routes, dosages, and volumes were as follows:
The detailed administration regimen is as follows; once a day, twice a day and twice a week in each experimental group. Injection initiated at 10 a.m. every day, and each rat was injected at one minute intervals. Rats in Group 9, 10, 13 and 14 were injected twice a week. Administration of high dose test agent preceded that of low dose. The volume of injection was calculated using recently measured weight of rats, and it was 5 mL/kg. Subcutaneous injection was performed as follows; assistant tilted the back of rat upward, and experimenter sterilized the back of rat with 70% alcohol, followed by subcutaneous injection of test agent with 26 G syringe.
1.4 mL of blood sample (0.7 mL of serum) was collected after measurement of weight (Day 0). Next day (1 Day), 1.4 mL of blood sample (0.7 mL of serum) was collected twice after injection of test agent (4 hrs and 8 hrs after administration of test agent). For next 6 days (Day 2˜Day 7), 1.4 mL of blood was extracted once everyday (4 hours after injection of test agent). Dose and volume of test agent of each group followed the Table 3, and injection time zone was same every day. Blood was extracted from the jugular vein, and left at room temperature for 30 minutes. Serum was separated using centrifugation (10,000 rpm for 5 minutes), and stored at −70±5° C. in Deep freezer until the use. Blood extraction from each subject was done in the same time zone every day.
A CLIA (Chemi-Luminescence Immune Assay) Kit was used to analyze Testosterone, Estradiol E2, FSH (Follicle stimulating hormone), and LH (Luteinizing hormone). Analysis was completed within 48 hrs after blood extraction (Laboratory Medicine Department, Chung-Ang University Hospital), and detailed method is as follows; One-way ANOVA was used to verify the comparison between the vehicle and PEP-1, and between different doses of PEP-1. For further analysis, Duncan test was used as parametric test and Dunnett's test as non-parametric test. p<0.05 represents the statistical significance, and all statistical analysis was carried out with SPSS 10.1.
LH was analyzed using the samples prepared from example 2. 50 μL of serum was used for analysis. Fundamentals of analysis is Two-site sandwich immunoassay based on direct chemi-luminescent. As mentioned in example 2, CLIA (Chemi-luminescence immune assay) Kit was used, following the manufacture's protocol.

## EARPALLTSRLRFIPK (listed as Homo sapiens) [PEP-1, hormone secretion modulator / GnRH analog]
G11 Male 100 mg/kg sc 1/day x7, 5 days
  LH level in blood: 0.19 mIU/mL
G11 Male 100 mg/kg sc 1/day x7, 6 days
  LH level in blood: 0.21 mIU/mL
G11 Male 100 mg/kg sc 1/day x7, 7 days
  LH level in blood: 0.21 mIU/mL
G11 Male 100 mg/kg sc 1/day x7, pre
  LH level in blood: 0.1 mIU/mL
G12 Female 100 mg/kg sc 1/day x7, 4 hr
  LH level in blood: 0.3 mIU/mL
G12 Female 100 mg/kg sc 1/day x7, 8 hr
  LH level in blood: 0.17 mIU/mL
G12 Female 100 mg/kg sc 1/day x7, 2 days
  LH level in blood: 0.22 mIU/mL
G12 Female 100 mg/kg sc 1/day x7, 3 days
  LH level in blood: 0.22 mIU/mL
G12 Female 100 mg/kg sc 1/day x7, 4 days
  LH level in blood: 0.23 mIU/mL
G12 Female 100 mg/kg sc 1/day x7, 5 days
  LH level in blood: 0.23 mIU/mL
G12 Female 100 mg/kg sc 1/day x7, 6 days
  LH level in blood: 0.28 mIU/mL
G12 Female 100 mg/kg sc 1/day x7, 7 days
  LH level in blood: 0.27 mIU/mL
G12 Female 100 mg/kg sc 1/day x7, pre
  LH level in blood: 0.13 mIU/mL
G13 Male 100 mg/kg sc 2/week x2 (days 1,7), 4 hr
  LH level in blood: 1.52 mIU/mL
G13 Male 100 mg/kg sc 2/week x2 (days 1,7), 8 hr
  LH level in blood: 0.21 mIU/mL
G13 Male 100 mg/kg sc 2/week x2 (days 1,7), 2 days
  LH level in blood: 0.11 mIU/mL
G13 Male 100 mg/kg sc 2/week x2 (days 1,7), 3 days
  LH level in blood: 0.11 mIU/mL
G13 Male 100 mg/kg sc 2/week x2 (days 1,7), 4 days
  LH level in blood: 0.14 mIU/mL
G13 Male 100 mg/kg sc 2/week x2 (days 1,7), 5 days
  LH level in blood: 0.13 mIU/mL
G13 Male 100 mg/kg sc 2/week x2 (days 1,7), 6 days
  LH level in blood: 0.11 mIU/mL
G13 Male 100 mg/kg sc 2/week x2 (days 1,7), 7 days
  LH level in blood: 0.99 mIU/mL
G13 Male 100 mg/kg sc 2/week x2 (days 1,7), pre
  LH level in blood: 0.12 mIU/mL
G14 Female 100 mg/kg sc 2/week x2 (days 1,7), 4 hr
  LH level in blood: 0.44 mIU/mL
G14 Female 100 mg/kg sc 2/week x2 (days 1,7), 8 hr
  LH level in blood: 0.18 mIU/mL
G14 Female 100 mg/kg sc 2/week x2 (days 1,7), 2 days
  LH level in blood: 0.17 mIU/mL
G14 Female 100 mg/kg sc 2/week x2 (days 1,7), 3 days
  LH level in blood: 0.14 mIU/mL
G14 Female 100 mg/kg sc 2/week x2 (days 1,7), 4 days
  LH level in blood: 0.09 mIU/mL
G14 Female 100 mg/kg sc 2/week x2 (days 1,7), 5 days
  LH level in blood: 0.12 mIU/mL
G14 Female 100 mg/kg sc 2/week x2 (days 1,7), 6 days
  LH level in blood: 0.11 mIU/mL
G14 Female 100 mg/kg sc 2/week x2 (days 1,7), 7 days
  LH level in blood: 0.57 mIU/mL
G14 Female 100 mg/kg sc 2/week x2 (days 1,7), pre
  LH level in blood: 0.12 mIU/mL
G15 Male 250 mg/kg sc 1/day x7, 4 hr
  LH level in blood: 1.4 mIU/mL
G15 Male 250 mg/kg sc 1/day x7, 8 hr
  LH level in blood: 0.29 mIU/mL
G15 Male 250 mg/kg sc 1/day x7, 2 days
  LH level in blood: 0.28 mIU/mL
G15 Male 250 mg/kg sc 1/day x7, 3 days
  LH level in blood: 0.2 mIU/mL
G15 Male 250 mg/kg sc 1/day x7, 4 days
  LH level in blood: 0.19 mIU/mL
G15 Male 250 mg/kg sc 1/day x7, 5 days
  LH level in blood: 0.2 mIU/mL
G15 Male 250 mg/kg sc 1/day x7, 6 days
  LH level in blood: 0.21 mIU/mL
G15 Male 250 mg/kg sc 1/day x7, 7 days
  LH level in blood: 0.23 mIU/mL
G15 Male 250 mg/kg sc 1/day x7, pre
  LH level in blood: 0.12 mIU/mL
G16 Female 250 mg/kg sc 1/day x7, 4 hr
  LH level in blood: 0.42 mIU/mL
G16 Female 250 mg/kg sc 1/day x7, 8 hr
  LH level in blood: 0.2 mIU/mL
G16 Female 250 mg/kg sc 1/day x7, 2 days
  LH level in blood: 0.23 mIU/mL
G16 Female 250 mg/kg sc 1/day x7, 3 days
  LH level in blood: 0.22 mIU/mL
G16 Female 250 mg/kg sc 1/day x7, 4 days
  LH level in blood: 0.23 mIU/mL
G16 Female 250 mg/kg sc 1/day x7, 5 days
  LH level in blood: 0.26 mIU/mL
G16 Female 250 mg/kg sc 1/day x7, 6 days
  LH level in blood: 0.28 mIU/mL
G16 Female 250 mg/kg sc 1/day x7, 7 days
  LH level in blood: 0.28 mIU/mL
G16 Female 250 mg/kg sc 1/day x7, pre
  LH level in blood: 0.11 mIU/mL
Male and female
  Effect on LH secretion: seems to stimulate the LH secretion
male, 4 hrs, all groups but vehicle, before administration 0.1 mIU/mL
  LH level: 0.5-1.5 mIU/mL
